Test results taken from patent US20080152735A1, “Herbal Extract Having Anti- Influenza Virus Activity and Preparation of Same” (NATIONAL DEFENSE MEDICAL CENTER, priority 2006, published 2008).
Like-named read-outs stand apart in the source and are kept apart here.

Columns and labels:
influenza virus (H1N1) = assay: in vitro anti-influenza virus test in MDCK cells, MTT readout; assay type: cell-based
[1] = test system: MDCK cells (Madin-Darby Canine Kidney Epithelial Cells)
[2] = test system: neuraminidase (NA) of influenza virus; assay type: biochemical; details: for FU/min (neuraminidase enzymatic activity in presence of medicament): kit positive control 0.42 FU/min; for activity relative to that of Tamiflu: same dosage 0.5 mg/mL, ratio of FU/min values

O=c1c(O)c(-c2ccc(O)cc2)oc2cc(O)cc(O)c12 [SOFL-EM-8-6S, kaempferol]
cell survival rate (influenza virus (H1N1); D1+V: infecting with virus one hour after pretreatment with test drug, 18.75 μg/mL): up to 75%
D1 + V (influenza virus (H1N1); MTT absorbance percentage vs mock control, virus infection one hour after pretreatment with test drug, dosage 18.75 μg/mL, MDCK cells, H1N1): +++ (>75≦100 as +++)
D [1]: ++++ (key: absorbance percentage≦25 was recorded as +/−; >25≦50 recorded as +; >50≦75 as ++; >75≦100 as +++; >100 as ++++)
Response ([2]; dosage 0.5 mg/mL): Inhibition
FU/min (neuraminidase enzymatic activity in presence of medicament) ([2]; dosage 0.5 mg/mL): 0.06 FU/min
activity relative to that of Tamiflu [2]: six-fold

NC(=O)c1ncn([C@@H]2O[C@H](CO)[C@@H](O)[C@H]2O)n1 [Ribavirin, reference compound]
D1 + V (influenza virus (H1N1); MTT absorbance percentage vs mock control, […], dosage 9.37 μg/mL, MDCK cells, H1N1): +++ (>75≦100 as +++)

CC(C)=CCc1c(O)cc2oc(-c3ccc(O)cc3)c(O)c(=O)c2c1O [SOFL-EM-8-6C, licoflavonol]
cell survival rate (influenza virus (H1N1); D1+V: infecting with virus one hour after pretreatment with test drug, 10 μg/mL): up to 100%
cell survival rate (influenza virus (H1N1); DV: cells treated simultaneously with test drug and virus, 10 μg/mL): 75%
DV (influenza virus (H1N1); MTT absorbance percentage vs mock control, cells treated simultaneously with test drug and virus, dosage 10 μg/mL, MDCK cells, H1N1): +++ (>75≦100 as +++)
V1 + D (influenza virus (H1N1); MTT absorbance percentage vs mock control, test drug added one hour after adsorption of virus on cell, dosage 10 μg/mL, MDCK cells, H1N1): ++++ (>100 as ++++)
D1 + V (influenza virus (H1N1); MTT absorbance percentage vs mock control, virus infection one hour after pretreatment with test drug, dosage 10 μg/mL, MDCK cells, H1N1): ++++ (>100 as ++++)
cell survival rate (influenza virus (H1N1); V1+D: test drug added one hour after adsorption of virus on cell, 10 μg/mL): 100%
Response ([2]; dosage 0.05 mg/mL): Inhibition
FU/min (neuraminidase enzymatic activity in presence of medicament) ([2]; dosage 0.05 mg/mL): 0.13 FU/min
Response ([2]; dosage 0.5 mg/mL): Inhibition
FU/min (neuraminidase enzymatic activity in presence of medicament) ([2]; dosage 0.5 mg/mL): 0.02 FU/min
activity relative to that of Tamiflu [2]: two-fold

CCOC(=O)C1=C[C@@H](OC(CC)CC)[C@H](NC(C)=O)[C@@H](N)C1 [Tamiflu, reference compound]
Response ([2]; dosage 0.5 mg/mL): Inhibition
FU/min (neuraminidase enzymatic activity in presence of medicament) ([2]; dosage 0.5 mg/mL): 0.01 FU/min
